Laboratory results reported in US3975529A, “Diebenzo(B,E)thiepines” (Roussel-UCLAF, priority 1974, dated 1976).

Key:
Format in all cases: in vivo, mice
[1] = test system: antinociceptive activity of oxotremorine; experiment: Antagonism of antinociceptive activity of oxotremorine, hot plate (Table III)
Protocol: The antinociceptive activity of oxotremorine [Leslie, J. Pharm. Pharmae., Vol. 2 (1969), p. 248-50] was determined on mice using the hot plate method of Eddy et al [J. Pharmacol. Vol. 107 (1953), p. 385] in the presence and absence of the test product presumed to be antagonistic. The product of Example 1 was administered subcutaneously in aqueous solution at doses of 50 and 100 mg/kg to groups of 10 mice and the products of Examples 2 to 5 were subcutaneously administered in sesame oil solution at doses of 200 and 400 mg/kg to groups of 10 mice. The mice then received a single intraperitoneal injection of 0.5 mg/kg of oxotremorine either 4 hours, 1 day, 2, 3, 4 or 7 days after the test product administration. For each time considerated, the mice were placed on the hot plate one half hour after the oxotremorine administration and the time for the appearance of nociceptive refluxes consistituted by simultaneous licking of the front paws was noted. The maximum time of staying on the hot plate was fixed at 45 seconds and the percentage of animals with a reaction time (RT) less than 40 seconds in spite of oxotremorine administration was determined.

[2] = test system: trembling and peripherical cholinergic manifestations provoked by tremorine; experiment: Antitremorine activity as a function of time (Table I); conditions: for antitremorine activity (in words): s.c. sesame oil, mice, Table I
Protocol: The antagonism of the test compounds to the trembling and peripherical cholinergic manifestations provoked by tremorine [Everett et al, Science, Vol. 124 (1956), p. 79] was studied on mice.
The products of Examples 2 and 3 were administered subcutaneously in sesame oil solution at doses of 200 and 400 mg/kg at a volume of 25 ml/kg to groups of 10 mice. The mice receied intraperitoneal injections of 20 mg/kg of tremorine either for 4 hours, one day, 2, 3 or 4 days after injection of the test product. […] The reactions (T-trembling; S-salivation; L-lacrymation) were noted 10, 20, 30 and 60 minutes after the tremorine injection and the percent of inhibition of the different reactions at the height of the effect after injection of tremorine were noted as a function of time.

[3] = test system: trembling and peripherial cholinergic manifestations provoked by oxotremorine; experiment: Antioxotremorine activity: antagonism to the trembling and peripherial cholinergic manifestations (Table II)
Protocol: The antagonism of the test products to the trembling and peripherial cholinergic manifestations provoked by oxotremorine [Cho et al, J. Biochem. Biophys. Res. Commun., Vol. 5, (196l) p. 276] was studied on mice. The product of Example 1 was administered subcutaneously in aqueous solution at doses of 50 and 100 mg/kg to groups of 10 mice and the products of Example 2 were subcutaneously administered in sesame oil solution at doses of 200 and 400 mg/kg to groups of 10 mice. Control animals received no vehicle. The mice then received a single intraperitoneal dose of 0.5 mg/kg of oxotremorine either 4 hours, 1 day, 2, 3, 4 or 7 days after the injection of the test product. The reaction of the animals as in Table I were recorded 5,10 and 15 minutes after the injection of oxotremorine and the percent of inhibition of the different reactions, at the height of the effect, after the oxotremorine injection was determined as a function of time.

[4] = 200 mg/kg s.c. sesame oil, after 4 h
[5] = 200 mg/kg s.c. sesame oil, after 1 d
[6] = 200 mg/kg s.c. sesame oil, after 2 d
[7] = 200 mg/kg s.c. sesame oil, after 3 d
[8] = 200 mg/kg s.c. sesame oil, after 4 d
[9] = 200 mg/kg s.c. sesame oil, after 7 d
[10] = 400 mg/kg s.c. sesame oil, after 4 h
[11] = 400 mg/kg s.c. sesame oil, after 1 d
[12] = 400 mg/kg s.c. sesame oil, after 2 d
[13] = 400 mg/kg s.c. sesame oil, after 3 d
[14] = 400 mg/kg s.c. sesame oil, after 4 d
[15] = 400 mg/kg s.c. sesame oil, after 7 d

## O=C1CCCN1CC#CCN1CCCC1 [Oxotremorine, oxotremorine, reference compound]
[1]; oxotremorine controls, 0.5 mg/kg i.p., 4 h
  % of animals with a RT less than 40 seconds: 10%
[1]; oxotremorine controls, 0.5 mg/kg i.p., 1 d
  % of animals with a RT less than 40 seconds: 10%
[1]; oxotremorine controls, 0.5 mg/kg i.p., 2 d
  % of animals with a RT less than 40 seconds: 10%
[1]; oxotremorine controls, 0.5 mg/kg i.p., 3 d
  % of animals with a RT less than 40 seconds: 10%
[1]; oxotremorine controls, 0.5 mg/kg i.p., 4 d
  % of animals with a RT less than 40 seconds: 0%
[1]; oxotremorine controls, 0.5 mg/kg i.p., 7 d
  % of animals with a RT less than 40 seconds: 0%

## CCCCCCCCCC(=O)OCCN1C2CCC1CC(=C1c3ccccc3CSc3ccccc31)C2 (racemic) [Example 4, dl N-(β-decanoyloxyethyl)-11-(3'-nortropylidene)-6,11-dihydrodibenzo(b,e)thiepine]
[1]; [4]
  % of animals with a RT less than 40 seconds: 100%
[1]; [5]
  % of animals with a RT less than 40 seconds: 30%
[1]; [6]
  % of animals with a RT less than 40 seconds: 30%
[1]; [7]
  % of animals with a RT less than 40 seconds: 10%
[1]; [8]
  % of animals with a RT less than 40 seconds: 0%
[1]; [9]
  % of animals with a RT less than 40 seconds: 20%
[1]; [10]
  % of animals with a RT less than 40 seconds: 100%
[1]; [11]
  % of animals with a RT less than 40 seconds: 60%
[1]; [12]
  % of animals with a RT less than 40 seconds: 30%
[1]; [13]
  % of animals with a RT less than 40 seconds: 30%
[1]; [14]
  % of animals with a RT less than 40 seconds: 0%
[1]; [15]
  % of animals with a RT less than 40 seconds: 30%

## CCCCCCC(=O)OCCN1C2CCC1CC(=C1c3ccccc3CSc3ccccc31)C2 (racemic) [Example 3, dl N-(β-heptanoyloxyethyl)-11-(3'-nortropylidene)-6,11-dihydrodibenzo(b,e)thiepine]
[2]; [4]
  % inhibition of reactions: L (lacrymation): 90%
  % inhibition of reactions: S (salivation): 30%
  % inhibition of reactions: T (trembling): 40%
[2]; [5]
  % inhibition of reactions: L (lacrymation): 30%
  % inhibition of reactions: S (salivation): 20%
  % inhibition of reactions: T (trembling): 0%
[2]; [6]
  % inhibition of reactions: L (lacrymation): 100%
  % inhibition of reactions: S (salivation): 10%
  % inhibition of reactions: T (trembling): 100%
[2]; [7]
  % inhibition of reactions: L (lacrymation): 20%
  % inhibition of reactions: S (salivation): 0%
[2]; [8]
  % inhibition of reactions: L (lacrymation): 0%
  % inhibition of reactions: S (salivation): 10%
  % inhibition of reactions: T (trembling): 20%
[2]
  antitremorine activity (in words): prolonged antitremorine activity
[1]; [4]
  % of animals with a RT less than 40 seconds: 50%
[1]; [5]
  % of animals with a RT less than 40 seconds: 60%
[1]; [6]
  % of animals with a RT less than 40 seconds: 50%
[1]; [7]
  % of animals with a RT less than 40 seconds: 50%
[1]; [8]
  % of animals with a RT less than 40 seconds: 40%
[1]; [9]
  % of animals with a RT less than 40 seconds: 40%
[1]; [10]
  % of animals with a RT less than 40 seconds: 70%
[1]; [11]
  % of animals with a RT less than 40 seconds: 40%
[1]; [12]
  % of animals with a RT less than 40 seconds: 50%
[1]; [13]
  % of animals with a RT less than 40 seconds: 30%
[1]; [14]
  % of animals with a RT less than 40 seconds: 40%
[1]; [15]
  % of animals with a RT less than 40 seconds: 20%

## CCCCCCCCCCCCCCCC(=O)OCCN1C2CCC1CC(=C1c3ccccc3CSc3ccccc31)C2 (racemic) [Example 5, dl N-(β-palmitoyloxyethyl)-11-(3'-nortropylidene)-6,11-dihydrodibenzo(b,e)thiepine]
[1]; [4]
  % of animals with a RT less than 40 seconds: 20%
[1]; [5]
  % of animals with a RT less than 40 seconds: 30%
[1]; [6]
  % of animals with a RT less than 40 seconds: 40%
[1]; [7]
  % of animals with a RT less than 40 seconds: 10%
[1]; [8]
  % of animals with a RT less than 40 seconds: 30%
[1]; [9]
  % of animals with a RT less than 40 seconds: 30%
[1]; [10]
  % of animals with a RT less than 40 seconds: 70%
[1]; [11]
  % of animals with a RT less than 40 seconds: 60%
[1]; [12]
  % of animals with a RT less than 40 seconds: 30%
[1]; [13]
  % of animals with a RT less than 40 seconds: 20%
[1]; [14]
  % of animals with a RT less than 40 seconds: 20%
[1]; [15]
  % of animals with a RT less than 40 seconds: 30%

## CCC(=O)OCCN1C2CCC1CC(=C1c3ccccc3CSc3ccccc31)C2 (racemic) [Example 2, dl N-(β-propionyloxyethyl)-11-(3'-nortropylidene)-6,11-dihydrodibenzo(b,e)thiepine]
[2]; [4]
  % inhibition of reactions: L (lacrymation): 100%
  % inhibition of reactions: S (salivation): 90%
  % inhibition of reactions: T (trembling): 100%
[2]; [5]
  % inhibition of reactions: L (lacrymation): 100%
  % inhibition of reactions: S (salivation): 90%
  % inhibition of reactions: T (trembling): 90%
[2]; [6]
  % inhibition of reactions: L (lacrymation): 40%
  % inhibition of reactions: S (salivation): 0%
  % inhibition of reactions: T (trembling): 0%
[2]; [7]
  % inhibition of reactions: L (lacrymation): 100%
  % inhibition of reactions: S (salivation): 50%
  % inhibition of reactions: T (trembling): 20%
[2]; [8]
  % inhibition of reactions: L (lacrymation): 60%
  % inhibition of reactions: S (salivation): 0%
  % inhibition of reactions: T (trembling): 0%
[2]; [10]
  % inhibition of reactions: L (lacrymation): 100%
  % inhibition of reactions: S (salivation): 100%
  % inhibition of reactions: T (trembling): 100%
[2]; [11]
  % inhibition of reactions: L (lacrymation): 100%
  % inhibition of reactions: S (salivation): 100%
  % inhibition of reactions: T (trembling): 100%
[2]; [12]
  % inhibition of reactions: L (lacrymation): 100%
  % inhibition of reactions: S (salivation): 70%
  % inhibition of reactions: T (trembling): 40%
[2]; [13]
  % inhibition of reactions: L (lacrymation): 100%
  % inhibition of reactions: S (salivation): 20%
  % inhibition of reactions: T (trembling): 10%
[2]; [14]
  % inhibition of reactions: L (lacrymation): 60%
  % inhibition of reactions: S (salivation): 90%
  % inhibition of reactions: T (trembling): 50%
[2]
  antitremorine activity (in words): prolonged antitremorine activity
[3]; [4]
  % inhibition of reactions: L (lacrymation): 100%
  % inhibition of reactions: S (salivation): 80%
  % inhibition of reactions: T (trembling): 80%
[3]; [5]
  % inhibition of reactions: L (lacrymation): 100%
  % inhibition of reactions: S (salivation): 90%
  % inhibition of reactions: T (trembling): 100%
[3]; [6]
  % inhibition of reactions: L (lacrymation): 70%
  % inhibition of reactions: S (salivation): 30%
  % inhibition of reactions: T (trembling): 30%
[3]; [7]
  % inhibition of reactions: L (lacrymation): 30%
  % inhibition of reactions: S (salivation): 10%
  % inhibition of reactions: T (trembling): 0%
[3]; [8]
  % inhibition of reactions: L (lacrymation): 11%
  % inhibition of reactions: S (salivation): 0%
[3]; [9]
  % inhibition of reactions: L (lacrymation): 10%
  % inhibition of reactions: S (salivation): 0%
  % inhibition of reactions: T (trembling): 0%
[3]; [10]
  % inhibition of reactions: L (lacrymation): 100%
  % inhibition of reactions: S (salivation): 100%
  % inhibition of reactions: T (trembling): 100%
[3]; [11]
  % inhibition of reactions: L (lacrymation): 100%
  % inhibition of reactions: S (salivation): 100%
  % inhibition of reactions: T (trembling): 100%
[3]; [12]
  % inhibition of reactions: L (lacrymation): 80%
  % inhibition of reactions: S (salivation): 60%
  % inhibition of reactions: T (trembling): 70%
[3]; [13]
  % inhibition of reactions: L (lacrymation): 10%
  % inhibition of reactions: S (salivation): 20%
  % inhibition of reactions: T (trembling): 0%
[3]; [14]
  % inhibition of reactions: L (lacrymation): 67%
  % inhibition of reactions: S (salivation): 20%
  % inhibition of reactions: T (trembling): 20%
[3]; [15]
  % inhibition of reactions: L (lacrymation): 20%
  % inhibition of reactions: S (salivation): 20%
  % inhibition of reactions: T (trembling): 10%
[3]; s.c. sesame oil, mice, Table II
  antioxotremorine activity (in words): prolonged antioxotremorine activity
[1]; [4]
  % of animals with a RT less than 40 seconds: 100%
[1]; [5]
  % of animals with a RT less than 40 seconds: 100%
[1]; [6]
  % of animals with a RT less than 40 seconds: 90%
[1]; [7]
  % of animals with a RT less than 40 seconds: 50%
[1]; [8]
  % of animals with a RT less than 40 seconds: 60%
[1]; [9]
  % of animals with a RT less than 40 seconds: 30%
[1]; [10]
  % of animals with a RT less than 40 seconds: 100%
[1]; [11]
  % of animals with a RT less than 40 seconds: 100%
[1]; [12]
  % of animals with a RT less than 40 seconds: 100%
[1]; [13]
  % of animals with a RT less than 40 seconds: 80%
[1]; [14]
  % of animals with a RT less than 40 seconds: 90%
[1]; [15]
  % of animals with a RT less than 40 seconds: 20%
